From patent US10947237B2, “Antimicrobial compounds and methods of making and using the same” (BIOVERSYS AG, priority 2015, dated 2021)

Key:
[1] = tested on: Eschericia coli (E. Coli) strain ATCC25922; test: standard microdilution assay, minimum inhibitory concentration (MIC); assay type: cell-based; conditions: Escherichia coli; Table 2; strain ATCC25922
Experimental: (§1) The in vitro activity of the compounds of the present disclosure can be determined. Antimicrobial testing is typically performed to determine the minimum inhibitory concentration (MIC). Minimum inhibitory concentrations (MICs) are determined by the microdilution method in a final volume of 100 μl according to protocols outlined by The Clinical and Laboratory Standards Institute (CLSI). Performance standards for reference strains are assessed within the same experimental design to maintain quality control. See, for example, Clinical Laboratory Standards Institute: Methods for dilution antimicrobial susceptibility tests for bacteria that grow aerobically M7-A8. Approved Standard-Eighth Edition. Wayne, Pa.: CLSI; December 2008; and Clinical Laboratory Standards Institute: Performance Standards for Antimicrobial Susceptibility Testing M100-S20; Approved Standard-Twentieth Edition. Wayne, Pa.: CLSI; June 2010. The compounds of the present disclosure were tested for antimicrobial activity. The Compounds 1-149 were run against Eschericia coli (E. Coli) strain ATCC25922 and against Staphylococcus aureus (S. aureus) 11540 strain using a standard microdilution assay to determine minimum inhibitory concentrations (MICs). […] It will be recognized by one skilled in the art that the compounds can be assessed against other bacterial organisms and that the presentation of data for activity against Eschericia coli and Staphylococcus aureus are illustrative and in no way is intended to limit the scope of the present disclosure. The compounds of the present disclosure can be assayed against a range of other microorganisms depending upon the performance activity desired to be gathered. Furthermore, the “+” and “−” representation and the selection of a cutoff value of 16 micrograms/mL is also illustrative and in no way is intended to limit the scope of the present disclosure.

[2] = tested on: Staphylococcus aureus (S. aureus) 11540 strain; test: as above; assay type: cell-based; conditions: Table 2, 11540 strain
Experimental: as §1

SMILES	MIC [1] [µg/mL]	MIC [2] [µg/mL]
CC(=N)NCC[C@H]1CCC[C@H](c2ccc(-n3cc4cc(-c5cc(CCC[C@H](C)N)cc(Cl)c5F)[nH]c4nc3=O)cc2)N1 [Compound 1]	≤ 16	≤ 16
CC1=NCC[C@H]2CCC[C@H](c3ccc(-n4cc5cc(-c6cc(CCC[C@H](C)N)cc(Cl)c6F)[nH]c5nc4=O)cc3)N12 [Compound 2]	≤ 16	≤ 16
C[C@H](N)CCCc1cc(Cl)c(F)c(-c2cc3cn(-c4ccc([C@H]5CCC[C@H](CCNC(=N)c6ccccn6)N5)cc4)c(=O)nc3[nH]2)c1 [Compound 3]	≤ 16	≤ 16
C[C@H](N)CCCc1cc(Cl)c(F)c(-c2cc3cn(-c4ccc(CN[C@H](CCNC(=N)N)CNC(=N)N)cc4)c(=O)nc3[nH]2)c1 [Compound 4]	≤ 16	≤ 16
C[C@H](N)CCCc1cc(Cl)c(F)c(-c2cc3cn(-c4ccc([C@@H]5CCC[C@@H](CNCc6cn[nH]c6)N5)cc4)c(=O)nc3[nH]2)c1 [Compound 5]	≤ 16	≤ 16
C[C@H](N)CCCc1cc(Cl)c(F)c(-c2cc3cn(-c4ccc([C@@H]5CCC[C@@H](CNCc6cccnn6)N5)cc4)c(=O)nc3[nH]2)c1 [Compound 6]	≤ 16	≤ 16
C[C@H](N)CCCc1cc(Cl)c(F)c(-c2cc3cn(-c4ccc(CN[C@H](CCNC(=N)N)Cn5ccc(=O)[nH]c5=O)cc4)c(=O)nc3[nH]2)c1 [Compound 7]	≤ 16	≤ 16
Cc1cn(CC[C@@H]2CCC[C@@H](c3ccc(-n4cc5cc(-c6cc(CCC[C@H](C)N)cc(Cl)c6F)[nH]c5nc4=O)cc3)N2)c(=O)o1 [Compound 8]	≤ 16	≤ 16
CC(=O)CNCC[C@@H]1CCC[C@@H](c2ccc(-n3cc4cc(-c5cc(CCC[C@H](C)N)cc(Cl)c5F)[nH]c4nc3=O)cc2)N1 [Compound 9]	≤ 16	≤ 16
C[C@H](N)CCCc1cc(Cl)c(F)c(-c2cc3cn(-c4ccc([C@@H]5CCC[C@@H](Cc6cnc(N)o6)N5)cc4)c(=O)nc3[nH]2)c1 [Compound 10]	> 16	> 16
Cc1nc[nH]c1CNC[C@@H]1CCC[C@@H](c2ccc(-n3cc4cc(-c5cc(CCC[C@H](C)N)cc(Cl)c5F)[nH]c4nc3=O)cc2)N1 [Compound 11]	≤ 16	≤ 16
C[C@H](N)CCCc1cc(Cl)c(F)c(-c2cc3cn(-c4ccc([C@@H]5CCC[C@@H](CCNc6ncccn6)N5)cc4)c(=O)nc3[nH]2)c1 [Compound 12]	> 16	> 16
C[C@H](N)CCCc1cc(Cl)c(F)c(-c2cc3cn(-c4ccc(CN[C@@H](CCO)CCNC(=N)N)cc4)c(=O)nc3[nH]2)c1 [Compound 13]	≤ 16	≤ 16
Cc1ccnc(NC[C@@H](CCNC(=N)N)NCc2ccc(-n3cc4cc(-c5cc(CCC[C@H](C)N)cc(Cl)c5F)[nH]c4nc3=O)cc2)c1 [Compound 14]	≤ 16	≤ 16
C[C@H](N)CCCc1cc(Cl)c(F)c(-c2cc3cn(-c4ccc(CN[C@H](CCNC(=N)N)CS(N)(=O)=O)cc4)c(=O)nc3[nH]2)c1 [Compound 15]	≤ 16	≤ 16
C[C@H](N)CCCc1cc(Cl)c(F)c(-c2cc3cn(-c4ccc([C@@H]5CCC[C@@H](CNCc6cc[nH]c(=O)c6)N5)cc4)c(=O)nc3[nH]2)c1 [Compound 16]	≤ 16	≤ 16
C[C@H](N)CCCc1cc(Cl)c(F)c(-c2cc3cn(-c4ccc([C@@H]5CCC[C@@H](CCn6ccoc6=O)N5)cc4)c(=O)nc3[nH]2)c1 [Compound 17]	≤ 16	≤ 16
C[C@H](N)CCCc1cc(Cl)c(F)c(-c2cc3cn(-c4ccc([C@@H]5CCC[C@@H](CNCc6c[nH]nn6)N5)cc4)c(=O)nc3[nH]2)c1 [Compound 18]	> 16	> 16
C[C@H](N)CCCc1cc(Cl)c(F)c(-c2cc3cn(-c4ccc([C@@H]5CCC[C@@H](CCN6CCOC6=O)N5)cc4)c(=O)nc3[nH]2)c1 [Compound 20]	> 16	> 16
C[C@H](N)CCCc1cc(Cl)c(F)c(-c2cc3cn(-c4ccc(CN[C@H](CCNC(=N)N)CNc5ccccn5)cc4)c(=O)nc3[nH]2)c1 [Compound 21]	≤ 16	≤ 16
C[C@H](N)CCCc1cc(Cl)c(F)c(-c2cc3cn(-c4ccc([C@@H]5CCC[C@@H](C[C@@H](O)c6ccn[nH]6)N5)cc4)c(=O)nc3[nH]2)c1 [Compound 22]	≤ 16	≤ 16
C[C@H](N)CCCc1cc(Cl)c(F)c(-c2cc3cn(-c4ccc([C@@H]5CCC[C@@H](C[C@H](O)c6ccn[nH]6)N5)cc4)c(=O)nc3[nH]2)c1 [Compound 23]	> 16	≤ 16

SMILES	MIC [1] [µg/mL]	MIC [2] [µg/mL]
C[C@H](N)CCCc1cc(Cl)c(F)c(-c2cc3cn(-c4ccc(CN[C@H](CCNC(=N)N)CCc5cnc(N)s5)cc4)c(=O)nc3[nH]2)c1 [Compound 24]	≤ 16	≤ 16
COc1ccc(CNc2ncc(CC[C@@H](CCNC(=N)N)NCc3ccc(-n4cc5cc(-c6cc(CCC[C@H](C)N)cc(Cl)c6F)[nH]c5nc4=O)cc3)s2)cc1 [Compound 25]	≤ 16	≤ 16
C[C@H](N)CCCc1cc(Cl)c(F)c(-c2cc3cn(-c4ccc([C@H]5CCC[C@H](CCNc6ncccn6)N5)cc4)c(=O)nc3[nH]2)c1 [Compound 26]	> 16	≤ 16
C[C@H](N)CCCc1cc(Cl)c(F)c(-c2cc3cn(-c4ccc([C@@H]5CCC[C@@H](CCNC6=NCCC6)N5)cc4)c(=O)nc3[nH]2)c1 [Compound 27]	≤ 16	≤ 16
C[C@H](N)CCCc1cc(Cl)c(F)c(-c2cc3cn(-c4ccc([C@@H]5CCC[C@@H](CCNC(=N)CCCCl)N5)cc4)c(=O)nc3[nH]2)c1 [Compound 28]	≤ 16	≤ 16
C[C@H](N)CCCc1cc(Cl)c(F)c(-c2cc3cn(-c4ccc([C@H]5CCC[C@H](CCNC6=NCCC6)N5)cc4)c(=O)nc3[nH]2)c1 [Compound 29]	≤ 16	≤ 16
CCNC[C@@H](CCNC(=N)N)NCc1ccc(-n2cc3cc(-c4cc(CCC[C@H](C)N)cc(Cl)c4F)[nH]c3nc2=O)cc1 [Compound 30]	≤ 16	≤ 16
C[C@H](N)CCCc1cc(Cl)c(F)c(-c2cc3cn(-c4ccc([C@H]5N[C@H](CCNC(=N)N)CCO5)cc4)c(=O)nc3[nH]2)c1 [Compound 31]	≤ 16	≤ 16
C[C@H](N)CCCc1cc(Cl)c(F)c(-c2cc3cn(-c4ccc([C@@H]5N[C@@H](CCNC(=N)N)CCO5)cc4)c(=O)nc3[nH]2)c1 [Compound 32]	≤ 16	≤ 16
C[C@H](N)CCCc1cc(Cl)c(F)c(-c2cc3cn(-c4ccc(CN[C@H](CCNC(=N)N)CNc5ccon5)cc4)c(=O)nc3[nH]2)c1 [Compound 33]	≤ 16	≤ 16
C[C@H](N)CCCc1cc(Cl)c(F)c(-c2cc3cn(-c4ccc([C@@H]5CCC[C@@H](CCNC(=N)N)C5)cc4)c(=O)nc3[nH]2)c1 [Compound 34]	≤ 16	≤ 16
C[C@H](N)CCCc1cc(Cl)c(F)c(-c2cc3cn(-c4ccc([C@H]5CCC[C@H](CCNC(=N)N)C5)cc4)c(=O)nc3[nH]2)c1 [Compound 35]	≤ 16	≤ 16
C[C@H](N)CCCc1cc(Cl)c(F)c(-c2cc3cn(-c4ccc(CN[C@H](CCNC(=N)N)CNc5cccc6sccc56)cc4)c(=O)nc3[nH]2)c1 [Compound 36]	≤ 16	≤ 16
C[C@H](N)CCCc1cc(Cl)c(F)c(-c2cc3cn(-c4ccc(CN[C@H](CCNC(=N)N)CNc5nc6ccccc6[nH]5)cc4)c(=O)nc3[nH]2)c1 [Compound 37]	≤ 16	≤ 16
C[C@H](N)CCCc1cc(Cl)c(F)c(-c2cc3cn(-c4ccc(CN[C@H](CCNC(=N)N)CNc5ncns5)cc4)c(=O)nc3[nH]2)c1 [Compound 38]	≤ 16	≤ 16
COc1ccc(NC[C@@H](CCNC(=N)N)NCc2ccc(-n3cc4cc(-c5cc(CCC[C@H](C)N)cc(Cl)c5F)[nH]c4nc3=O)cc2)nn1 [Compound 39]	≤ 16	≤ 16
C[C@H](N)CCCc1cc(Cl)c(F)c(-c2cc3cn(-c4ccc(CN[C@H](CCNC(=N)N)CNc5ccc(=O)[nH]n5)cc4)c(=O)nc3[nH]2)c1 [Compound 40]	≤ 16	≤ 16
Cc1nc(NCC[C@H]2CCC[C@H](c3ccc(-n4cc5cc(-c6cc(CCC[C@H](C)N)cc(Cl)c6F)[nH]c5nc4=O)cc3)N2)[nH]c1C [Compound 41]	≤ 16	≤ 16
Cc1nc(NCC[C@@H]2CCC[C@@H](c3ccc(-n4cc5cc(-c6cc(CCC[C@H](C)N)cc(OC(F)(F)F)c6F)[nH]c5nc4=O)cc3)N2)[nH]c1C [Compound 42]	≤ 16	≤ 16
C[C@H](N)CCCc1cc(Cl)c(F)c(-c2cc3cn(-c4ccc([C@@H]5CCC[C@@H](CCNc6nc7ccccc7[nH]6)N5)cc4)c(=O)nc3[nH]2)c1 [Compound 43]	≤ 16	≤ 16
C[C@H](N)CCCc1cc(Cl)c(F)c(-c2cc3cn(-c4ccc([C@H]5CCC[C@H](CCNc6nc7ccccc7[nH]6)N5)cc4)c(=O)nc3[nH]2)c1 [Compound 44]	≤ 16	≤ 16
